Measured values taken from PubChem BioAssay (NCI).
Values joined by “and” are separate entries in the source; they are usually repeats but may differ in a detail not shown here. Equal values may be shown once.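 48-hour exposure; five concentrations; linearly interpolated endpoints. GI50 = concentration required for 50% inhibition of growth. TGI denotes the concentration required for complete inhibition of growth.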

What was measured:
Assay in all cases: NCI-60 cell line screen, 48 h
ACHN renal = test system: ACHN renal
M14 melanoma = test system: M14 melanoma
NCI-H23 lung = test system: NCI-H23 lung
NCI-H460 lung = test system: NCI-H460 lung
OVCAR-4 ovarian = test system: OVCAR-4 ovarian
SK-MEL-2 melanoma = test system: SK-MEL-2 melanoma
SN12C renal = test system: SN12C renal
SNB-19 CNS = test system: SNB-19 CNS
U251 CNS = test system: U251 CNS
UACC-62 melanoma = test system: UACC-62 melanoma
HOP-92 NSCLC = test system: HOP-92 NSCLC
DU-145 prostate = test system: DU-145 prostate
MDA-N = test system: MDA-N

| Structure (SMILES) | TGI (ACHN renal) [µM] | TGI (M14 melanoma) [µM] | TGI (NCI-H23 lung) [µM] | TGI (NCI-H460 lung) [µM] | TGI (OVCAR-4 ovarian) [µM] | TGI (SK-MEL-2 melanoma) [µM] | TGI (SN12C renal) [µM] | TGI (SNB-19 CNS) | TGI (U251 CNS) [µM] | TGI (UACC-62 melanoma) [µM] | GI50 (ACHN renal) [µM] | GI50 (HOP-92 NSCLC) [µM] | TGI (HOP-92 NSCLC) [µM] | GI50 (SN12C renal) [µM] | GI50 (SNB-19 CNS) [µM] | TGI (DU-145 prostate) | GI50 (MDA-N) [µM] | TGI (MDA-N) |
| --- | --- | --- | --- | --- | --- | --- | --- | --- | --- | --- | --- | --- | --- | --- | --- | --- | --- | --- |
| O=C(CSc1nnc(Cc2ccccc2)o1)Nc1ccc(Cl)cc1 | > 100 | > 100 | > 100 | > 100 | > 100 | > 100 | > 100 | > 100 µM | > 100 | > 100 | – | – | – | – | – | – | – | – |
| CN(C)c1ccc(/C=C/c2sc3ccc4ccccc4c3[n+]2C)cc1 | > 100 | – | – | – | – | – | 3.43 | > 100 µM | – | – | 0.537 | 0.636 | 2.84 | 0.359 | 0.521 | – | – | – |
| OC1C(O)C(O)C(O)C(O)C1O (centres undefined) | > 1000 | > 1000 | > 1000 | > 1000 | > 1000 | > 1000 | > 1000 | > 1000 µM | > 1000 | > 1000 | – | – | > 1000 | – | – | > 1000 µM | – | – |
| O=c1ccc2ccccc2o1 | > 100 | > 100 | > 100 | > 100 | > 100 | > 100 | > 100 | > 100 µM | > 100 | > 100 | – | – | > 100 | – | – | – | – | – |
| COC(=O)[C@@H]1c2cc3c(c(O)c2[C@@H](OC)C[C@@]1(C)O)C(=O)c1c(O)cc2c(c1C3=O)OC1O[C@@]2(C)[C@H](O)[C@@H](N(C)C)[C@@H]1O | – | – | 1.49 | 0.488 | 1.76 | 0.727 | 2.1 | 2.37 µM | 1.92 | 0.534 | – | – | 0.14 | – | – | – | – | – |
| Cc1cc2c(c3oc(C(O)(CO)C4CO4)cc(=O)c13)C(=O)c1c(O)cccc1C2=O (centres undefined) | 0.00524 | – | – | 0.00012 | – | 0.00415 | – | 0.00442 µM and 0.00494 µM | 0.00411 | 0.00293 | – | – | 0.000983 | – | 0.000231 | 0.00249 µM and 0.00108 µM | 0.00375 | 0.00443 µM and 0.00515 µM |
| c1ccc2c(c1)CCc1c-2n(CCN2CCCCC2)c2ccccc12 | 39.3 | 29.7 | 32.1 | 29.7 | 59.4 | 30.2 | 36.9 | 94.5 µM | 30.3 | 29.1 | – | – | 35 | – | – | > 100 µM | – | – |
| OCCCSc1ccccc1SCCCO | – | > 100 | > 100 | > 100 | > 100 | – | > 100 | > 100 µM | > 100 | > 100 | – | – | > 100 | – | – | > 100 µM | – | > 100 µM |
| Cc1ccc(C(=O)CC(Cl)=C(Cl)Cl)cc1 | > 100 | > 100 | > 100 | > 100 | > 100 | > 100 | – | > 100 µM | > 100 | > 100 | – | – | > 100 | – | – | > 100 µM | – | – |
| NC(=O)c1n[nH]n(-c2ccccc2)c1=O | > 100 | > 100 | > 100 | > 100 | – | > 100 | > 100 | > 100 µM | > 100 | > 100 | – | – | – | – | – | > 100 µM | – | – |
| Cn1c(-c2csc(-c3ccc(Cl)cc3)n2)n[nH]c1=S | 34.8 | > 100 | 75.5 | > 100 | 50.9 | – | > 100 | 44.4 µM | – | 46.6 | – | – | 27.1 | – | – | – | – | > 100 µM |
| O=c1nc2n(cc1/C=C\Br)C1CC(O)C(CO2)O1 (centres undefined) | > 100 | – | > 100 | > 100 | > 100 | – | > 100 | > 100 µM | > 100 | > 100 | – | – | – | – | – | > 100 µM | – | > 100 µM |
| N#CCCC(CC#N)N1CCN(CCO)CC1 (centres undefined) | > 100 | > 100 | > 100 | > 100 | > 100 | – | > 100 | > 100 µM | > 100 | > 100 | – | – | > 100 | – | – | > 100 µM | – | – |
| COc1ccc(/C(Cl)=C(\C=O)c2ccc(F)cc2)cc1 | 35.6 | > 100 | 72.9 | 20.1 | – | 28.6 | 64.7 | > 100 µM | 23.5 | 56 | – | – | 19.1 | – | – | – | – | – |
| CN1N=C2c3ccccc3CC[C@H]2C1c1ccccc1 (some centres undefined) | > 100 | > 100 | > 100 | > 100 | > 100 | > 100 | > 100 | > 100 µM | > 100 | > 100 | – | – | 77.9 | – | – | – | – | – |
| O=[N+]([O-])c1ccc(NC2OCC(O)C(O)C2O)cc1 (centres undefined) | > 100 | > 100 | > 100 | > 100 | > 100 | > 100 | > 100 | > 100 µM | > 100 | > 100 | – | – | > 100 | – | – | – | – | – |

| Structure (SMILES) | TGI (ACHN renal) [µM] | TGI (M14 melanoma) [µM] | TGI (NCI-H23 lung) [µM] | TGI (NCI-H460 lung) [µM] | TGI (OVCAR-4 ovarian) [µM] | TGI (SK-MEL-2 melanoma) [µM] | TGI (SN12C renal) [µM] | TGI (SNB-19 CNS) | TGI (U251 CNS) [µM] | TGI (UACC-62 melanoma) [µM] | GI50 (ACHN renal) [µM] | GI50 (HOP-92 NSCLC) [µM] | TGI (HOP-92 NSCLC) [µM] | GI50 (SN12C renal) [µM] | GI50 (SNB-19 CNS) [µM] | TGI (DU-145 prostate) | GI50 (MDA-N) [µM] | TGI (MDA-N) |
| --- | --- | --- | --- | --- | --- | --- | --- | --- | --- | --- | --- | --- | --- | --- | --- | --- | --- | --- |
| COC1(OC)N=C(N)C2(C#N)C(C)CC(=O)N(N(C)C)C12C#N (centres undefined) | > 100 | > 100 | > 100 | – | – | > 100 | > 100 | > 100 µM | > 100 | > 100 | – | – | > 100 | – | – | > 100 µM | – | – |
| NC(=O)N/N=C(\Cc1nc2ccc(C(=O)c3ccccc3)cc2[nH]c1=O)C(=O)Nc1ccc(Br)cc1 | > 100 | > 100 | > 100 | > 100 | > 100 | > 100 | > 100 | > 100 µM | > 100 | > 100 | – | – | > 100 | – | – | – | – | – |
| COc1cccc(NCC(=O)Nn2c(-c3ccccc3)nc3ccccc3c2=O)c1 | > 100 | > 100 | > 100 | > 100 | > 100 | – | > 100 | > 100 µM | > 100 | > 100 | – | – | > 100 | – | – | > 100 µM | – | – |
| Nc1nc2c(ncn2CCOC(c2ccccc2)P(=O)(O)O)c(=O)[nH]1 (centres undefined) | > 100 | – | > 100 | > 100 | – | > 100 | > 100 | > 100 µM | > 100 | > 100 | – | – | – | – | – | – | – | – |
| Cn1c(C(C#N)c2cc(Cl)ncn2)nc2ccccc21 (centres undefined) | > 100 | > 100 | > 100 | > 100 | > 100 | – | > 100 | > 100 µM | > 100 | – | – | – | > 100 | – | – | > 100 µM | – | > 100 µM |
| CCOC(=O)CCC(NC(=O)c1ccc(CNc2nc3cc(N)cc(N)c3nc2-c2ccccc2)cc1)C(=O)OCC (centres undefined) | > 100 | > 61.6 | > 100 | > 100 | 42 | > 87.9 | > 90.2 | > 100 µM | > 100 | > 100 | – | – | > 100 | – | – | > 100 µM | – | – |
| CC(SC(=S)N1CCCCC1)C(=O)Nc1nnc(-c2ccc(Cl)cc2)o1 (centres undefined) | > 100 | 53.7 | > 100 | > 100 | > 100 | 77.1 | 51.6 | > 100 µM | > 100 | 75.1 | – | – | > 100 | – | – | > 100 µM | – | – |
| C[C@@]12CC[C@H]3[C@@H]4CCC(=O)N[C@@]4(C)CC[C@@H]3[C@@]1(C)CC[C@H](OC(=O)Cc1ccc(N(CCCl)CCCl)cc1)C2 | – | – | 30.3 | 28.2 | 32.2 | > 100 | 29.1 | – | 28.8 | 30.5 | – | – | 35.3 | – | – | – | – | – |
| CCSc1nc2sc(C)c(C)c2c(=O)n1-c1ccc(C(=O)O)cc1 | > 100 | > 100 | > 100 | > 100 | > 100 | > 100 | > 100 | > 100 µM | > 100 | > 100 | – | – | > 100 | – | – | – | – | – |
| CC1=C/C(=N/N2C(=O)/C(=C/c3ccc(Cl)cc3)N=C2c2ccccc2)CC(C)(C)C1 | > 100 | > 100 | > 100 | > 100 | > 100 | 96 | > 100 | > 100 µM | 69.7 | > 100 | – | – | > 100 | – | – | – | – | > 100 µM |
| Cc1cc(Cc2cc(C)c(NC(=O)C(=O)C3C(=O)NC(=S)NC3=O)c(C(C)C)c2)cc(C(C)C)c1NC(=O)C(=O)C1C(=O)NC(=S)NC1=O | > 100 | > 100 | > 100 | > 100 | > 100 | – | > 100 | > 100 µM | > 100 | > 100 | – | – | > 100 | – | – | – | – | – |
| CCCCCCCCCCCCCCCCCCNc1ccn(C2OC(COP(=O)(O)O)C(O)C2O)c(=O)n1 (centres undefined) | > 100 | > 100 | > 100 | – | > 100 | > 100 | > 100 | > 100 µM | > 100 | > 100 | – | – | > 100 | – | – | > 100 µM | – | – |
| COC(=O)C1=NN2c3ccccc3C(=O)OCCC2C1 (centres undefined) | > 100 | – | > 100 | > 100 | > 100 | > 100 | > 100 | – | > 100 | > 100 | – | – | > 100 | – | – | > 100 µM | – | > 100 µM |
| CN(C)CCNCc1c2ccccc2c(CNCCN(C)C)c2ccccc12 | – | – | > 100 | > 100 | 72 | 57.5 | > 100 | – | 56.9 | > 61.6 | – | – | 47.3 | – | – | – | – | – |
| CN(C)C(=O)CC(C(=O)O)c1c[nH]c2ccccc12 (centres undefined) | > 100 | > 100 | > 100 | > 100 | > 100 | > 100 | > 100 | > 100 µM | > 100 | > 100 | – | – | – | – | – | – | – | – |
